Where two headings read alike, the source gives them in different places.
Assays:
[1] = PAMPA permeability
[2] = molecular target: recombinant human GALK1 (Homo sapiens, UniProt P51570); assay: hGALK1 biochemical activity assay (Kinase-Glo Plus, ATP depletion)
Outline: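 Turnover is measured as ATP depletion by Kinase-Glo Plus luminescence after a 1 h room-temperature reaction. Compounds span 11 concentrations, 57.4 μM–0.97 nM, in final 20 mM HEPES pH 8.0 with 5 mM MgCl2. The substrate solution held 35 μM ATP; the added solution held 5 nM human or mouse GALK1 and 100 μM galactose.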

[3] = rat microsomal stability (RLM)
[4] = aqueous kinetic solubility
[5] = molecular target: recombinant mouse GALK1 (Mus musculus, UniProt Q9R0N0); assay: mGALK1 biochemical activity assay (Kinase-Glo Plus, ATP depletion)
Chain of recombinant mouse GALK1 (Q9R0N0 whole entry): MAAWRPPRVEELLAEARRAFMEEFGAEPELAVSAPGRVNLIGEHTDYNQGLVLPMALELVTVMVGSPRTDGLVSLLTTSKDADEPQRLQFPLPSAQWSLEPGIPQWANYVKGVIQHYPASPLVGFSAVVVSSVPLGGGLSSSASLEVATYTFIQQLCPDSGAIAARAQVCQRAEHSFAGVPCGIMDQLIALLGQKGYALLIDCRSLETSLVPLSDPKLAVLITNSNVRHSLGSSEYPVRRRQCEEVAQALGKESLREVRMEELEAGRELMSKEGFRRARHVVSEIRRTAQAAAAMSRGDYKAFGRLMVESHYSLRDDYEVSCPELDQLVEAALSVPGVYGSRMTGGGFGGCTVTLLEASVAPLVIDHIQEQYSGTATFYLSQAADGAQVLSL
Outline: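 Recombinant GALK1 (5 nM) with 100 μM galactose; GALK1 turnover read as ATP depletion by Kinase-Glo Plus luminescence. Reaction ran 1 h at room temperature before detection reagent was added.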

[6] = recombinant human GALK1, Kinase-Glo Plus ATP depletion, read-out: hGALK
[7] = recombinant mouse GALK1, Kinase-Glo Plus ATP depletion, read-out: mGALK
[8] = recombinant mouse GALK1, Kinase-Glo Plus ATP depletion
[9] = Tables 2-15, 35 μM ATP, 100 μM galactose, 1 h, bracketed figure after some values (e.g. −1.2) is undefined and not reported, read-out: hGALK IC50
[10] = recombinant human GALK1, Kinase-Glo Plus ATP depletion, bracketed figure in the cell, e.g. (−1.2), is not defined in the text shown, read-out: hGALK
[11] = microsomal stability half-life, minutes
[12] = recombinant mouse GALK1, Kinase-Glo Plus ATP depletion, bracketed figure in the cell, e.g. (−1.2), is not defined in the text shown, read-out: mGALK

Chain of recombinant human GALK1 (P51570 whole entry): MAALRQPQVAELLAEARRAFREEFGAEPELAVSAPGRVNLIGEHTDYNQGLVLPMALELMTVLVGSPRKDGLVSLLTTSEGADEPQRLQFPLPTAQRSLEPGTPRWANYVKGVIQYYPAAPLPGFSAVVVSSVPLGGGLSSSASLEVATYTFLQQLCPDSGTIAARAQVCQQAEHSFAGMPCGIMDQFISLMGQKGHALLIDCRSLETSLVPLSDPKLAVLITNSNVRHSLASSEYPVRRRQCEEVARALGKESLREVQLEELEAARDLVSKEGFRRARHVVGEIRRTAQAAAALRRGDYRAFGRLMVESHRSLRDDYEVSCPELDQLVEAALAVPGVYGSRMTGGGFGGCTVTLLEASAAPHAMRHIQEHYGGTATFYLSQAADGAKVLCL

SMILES	Perm. (1 × 10^−6 cm/sec) ([1]; PAMPA)	IC50 [2, 6] [µM]	Sol. ([4]; aqueous kinetic solubility) [µg/mL]	IC50 [5, 7] [µM]	Perm. (1 × 10^−6 cm/sec) [1]	Metab. Stabil. (m) ([3]; microsomal half-life)	Sol. [4] [µg/mL]	also measured
CC1=C(C(=O)Nc2ccc(C(=O)O)nc2)C(c2ccccc2Cl)N=C(Nc2nc3ccccc3o2)N1 (stereo not drawn) [Compound 164, 5-(2-(benzo[d]oxazol-2-ylamino)-4-(2-chlorophenyl)-6-methyl-1,4-dihydropyrimidine-5-carboxamido)picolinic acid]	<1 1 × 10^−6 cm/sec	4.85	24.6	9.68	–	–	–	Metab. Stabil. (m) ([3]; microsomal stability half-life): >30 m
CC1=C(C(=O)N(C)c2ccccc2)C(c2ccccc2Cl)N=C(Nc2nc3ccccc3o2)N1 (stereo not drawn) [Compound 151, 2-(benzo[d]oxazol-2-ylamino)-4-(2-chlorophenyl)-N,6-dimethyl-N-phenyl-1,4-dihydropyrimidine-5-carboxamide]	203.1 1 × 10^−6 cm/sec	–	<1	–	–	–	–	hGALK (μM) ([2]; recombinant human GALK1, Kinase-Glo Plus ATP depletion): in- active; Metab. Stabil. (m) ([3]; microsomal stability half-life): 1.176 m; mGALK (μM) [5, 8]: in- active
CC1=C(C(=O)Nc2cc(C(=O)O)ccn2)[C@@H](c2ccccc2Cl)N=C(Nc2nc3ccc(F)cc3o2)N1 [Compound 20, (S)-2-(4-(2-chlorophenyl)-2-((6-fluorobenzo[d]oxazol-2-yl)amino)-6-methyl-1,4-dihydropyrimidine-5-carboxamido)isonicotinic acid]	–	3.06	–	13.7	<1 1 × 10^−6 cm/sec	>30	17.3	IC50 [2, 9]: 3.06 µM; IC50 ([5]; Tables 2-15, 35 μM ATP, 100 μM galactose, 1 h, bracketed figure after some values is undefined and not reported, read-out: mGALK IC50): 13.7 µM
O=C1CC(C(=O)NCCO)CC2=C1C(c1ccccc1Cl)N=C(Nc1nc3ccccc3o1)N2 (stereo not drawn) [Compound 279, 2-(benzo[d]oxazol-2-ylamino)-4-(2-chlorophenyl)-N-(2-hydroxyethyl)-5-oxo-1,4,5,6,7,8-hexahydroquinazoline-7-carboxamide]	<2 1 × 10^−6 cm/sec	–	28.98	–	–	–	–	IC50 [2, 10]: 4.85 µM; Metab. Stabil. (m) [3, 11]: >30 m; IC50 [5, 12]: 5.44 µM
CC1=C(C(=O)NCc2cnn(C)c2)[C@H](c2ccc(C)cc2Cl)N=C(Nc2nc3cccc(N)c3o2)N1 [Compound 115, (R)-2-((7-aminobenzo[d]oxazol-2-yl)amino)-4-(2-chloro-4-methylphenyl)-6-methyl-N-((1-methyl-1H-pyrazol-4-yl)methyl)-1,4-dihydropyrimidine-5-carboxamide]	–	0.13	–	1.58	416.8 1 × 10^−6 cm/sec	18.91	17.14	–
CC1=C(C(=O)NCc2cnn(C)c2)C(c2ccc(C)cc2Cl)N=C(Nc2nc3ncccc3o2)N1 (stereo not drawn) [Compound 105, 4-(2-chloro-4-methylphenyl)-6-methyl-N-((1-methyl-1H-pyrazol-4-yl)methyl)-2-(oxazolo[4,5-b]pyridin-2-ylamino)-1,4-dihydropyrimidine-5-carboxamide]	–	15.3	–	–	62.84 1 × 10^−6 cm/sec	6.149	>49	IC50 [2, 9]: 15.3 µM; mGALK IC50 ([5]; Tables 2-15, 35 μM ATP, 100 μM galactose, 1 h, bracketed figure after some values is undefined and not reported): inactive; mGALK (μM) [5, 8]: in- active
COc1ccc(Cl)c(C2N=C(Nc3nc4ccccc4o3)NC(C)=C2C(=O)Nc2nncs2)c1 (stereo not drawn) [Compound 269, 2-(benzo[d]oxazol-2-ylamino)-4-(2-chloro-5-methoxyphenyl)-6-methyl-N-(1,3,4-thiadiazol-2-yl)-1,4-dihydropyrimidine-5-carboxamide]	19.8 1 × 10^−6 cm/sec	–	<1	–	–	–	–	IC50 [2, 10]: 13.7 µM; Metab. Stabil. (m) [3, 11]: >30 m; IC50 [5, 12]: 17.2 µM
